Reference: ChEMBL document CHEMBL3046566, “In vitro antimycobacterial activity of novel N-(4-(substituted phenyl amino)-6-(pyridin-2-ylamino)-1,3,5-triazin-2-yl)isonicotinohydrazide” (Med Chem Res, 2011)
In brackets after ≈: the same amount, converted by molar mass.

Experiments:
[1] = test system: Mycobacterium tuberculosis; assay: Antimycobacterial activity against Mycobacterium tuberculosis H37Rv ATCC 27294 by microdilution alamar blue assay; format: functional
[2] = test system: Mycobacterium tuberculosis; assay: Growth inhibition of Mycobacterium tuberculosis H37Rv ATCC 27294 at 0.0250 uM by radiometric analysis; format: functional; conditions: read-out: GI
Vero = assay: Cytotoxicity against Chlorocebus aethiops (African green monkey) Vero cells up to 62.5 ug/ml after 72 hr by MTT assay; format: cell-based; conditions: chlorocebus sabaeus
[3] = test system: Mycobacterium tuberculosis; assay: Growth inhibition of Mycobacterium tuberculosis H37Rv ATCC 27294 at 0.0614 uM by radiometric analysis; format: functional; conditions: read-out: GI
[4] = test system: Mycobacterium tuberculosis; assay: Growth inhibition of Mycobacterium tuberculosis H37Rv ATCC 27294 at 0.1214 uM by radiometric analysis; format: functional; conditions: read-out: GI
[5] = test system: Mycobacterium tuberculosis; assay: Growth inhibition of Mycobacterium tuberculosis H37Rv ATCC 27294 at 0.7110 uM by radiometric analysis; format: functional; conditions: read-out: GI
[6] = test system: Mycobacterium tuberculosis; assay: Growth inhibition of Mycobacterium tuberculosis H37Rv ATCC 27294 at 0.0211 uM by radiometric analysis; format: functional; conditions: read-out: GI
[7] = test system: Mycobacterium tuberculosis; assay: Growth inhibition of Mycobacterium tuberculosis H37Rv ATCC 27294 at 0.1110 uM by radiometric analysis; format: functional; conditions: read-out: GI
[8] = test system: Mycobacterium tuberculosis; assay: Growth inhibition of Mycobacterium tuberculosis H37Rv ATCC 27294 at 0.0550 uM by radiometric analysis; format: functional; conditions: read-out: GI
[9] = test system: Mycobacterium tuberculosis; assay: Growth inhibition of Mycobacterium tuberculosis H37Rv ATCC 27294 at 0.1277 uM by radiometric analysis; format: functional; conditions: read-out: GI
[10] = test system: Mycobacterium tuberculosis; assay: Growth inhibition of Mycobacterium tuberculosis H37Rv ATCC 27294 at 0.1211 uM by radiometric analysis; format: functional; conditions: read-out: GI
[11] = test system: Mycobacterium tuberculosis; assay: Growth inhibition of Mycobacterium tuberculosis H37Rv ATCC 27294 at 0.1109 uM by radiometric analysis; format: functional; conditions: read-out: GI
[12] = test system: Mycobacterium tuberculosis; assay: Growth inhibition of Mycobacterium tuberculosis H37Rv ATCC 27294 at 0.1127 uM by radiometric analysis; format: functional; conditions: read-out: GI
[13] = test system: Mycobacterium tuberculosis; assay: Growth inhibition of Mycobacterium tuberculosis H37Rv ATCC 27294 at 0.0418 uM by radiometric analysis; format: functional; conditions: read-out: GI
[14] = test system: Mycobacterium tuberculosis; assay: Growth inhibition of Mycobacterium tuberculosis H37Rv ATCC 27294 at 0.0650 uM by radiometric analysis; format: functional; conditions: read-out: GI
[15] = test system: Mycobacterium tuberculosis; assay: Growth inhibition of Mycobacterium tuberculosis H37Rv ATCC 27294 at 0.1218 uM by radiometric analysis; format: functional; conditions: read-out: GI
[16] = test system: Mycobacterium tuberculosis; assay: Growth inhibition of Mycobacterium tuberculosis H37Rv ATCC 27294 at 0.1229 uM by radiometric analysis; format: functional; conditions: read-out: GI
[17] = test system: Mycobacterium tuberculosis; assay: Growth inhibition of Mycobacterium tuberculosis H37Rv ATCC 27294 at 0.0677 uM by radiometric analysis; format: functional; conditions: read-out: GI
[18] = test system: Mycobacterium tuberculosis; assay: Growth inhibition of Mycobacterium tuberculosis H37Rv ATCC 27294 at 0.6890 uM by radiometric analysis; format: functional; conditions: read-out: GI
[19] = test system: Mycobacterium tuberculosis; assay: Growth inhibition of Mycobacterium tuberculosis H37Rv ATCC 27294 at 0.0311 uM by radiometric analysis; format: functional; conditions: read-out: GI

O=C(NNc1nc(Nc2ccc(Cl)cc2)nc(Nc2ccccn2)n1)c1ccncc1
MIC [1]: 5.91 µg/mL (≈ 13.6 µM)
inhibition of growth at 0.025 µM [2]: 94%

O=C(NNc1nc(Nc2ccccn2)nc(Nc2ccc(Cl)cc2Cl)n1)c1ccncc1
MIC [1]: 5.92 µg/mL (≈ 12.6 µM)
Activity (Vero): Non-toxic
inhibition of growth at 0.0614 µM [3]: 92%

O=C(NNc1nc(Nc2ccccn2)nc(Nc2ccccc2[N+](=O)[O-])n1)c1ccncc1
inhibition of growth at 0.1214 µM [4]: 67%

O=C(NNc1nc(Nc2ccccc2)nc(Nc2ccccn2)n1)c1ccncc1
inhibition of growth at 0.711 µM [5]: 71%

COc1ccc(Nc2nc(NNC(=O)c3ccncc3)nc(Nc3ccccn3)n2)cc1
MIC [1]: 4.11 µg/mL (≈ 9.57 µM)
inhibition of growth at 0.0211 µM [6]: 94%
Activity (Vero): Non-toxic

Cc1ccccc1Nc1nc(NNC(=O)c2ccncc2)nc(Nc2ccccn2)n1
inhibition of growth at 0.111 µM [7]: 71%

O=C(NNc1nc(Nc2cccc(Cl)c2)nc(Nc2ccccn2)n1)c1ccncc1
inhibition of growth at 0.055 µM [8]: 82%

O=C(NNc1nc(Nc2ccc(O)cc2)nc(Nc2ccccn2)n1)c1ccncc1
inhibition of growth at 0.1277 µM [9]: 77%

O=C(NNc1nc(Nc2ccc([N+](=O)[O-])cc2)nc(Nc2ccccn2)n1)c1ccncc1
inhibition of growth at 0.1211 µM [10]: 69%

O=C(NNc1nc(Nc2cccc([N+](=O)[O-])c2)nc(Nc2ccccn2)n1)c1ccncc1
inhibition of growth at 0.1109 µM [11]: 72%

Cc1ccc(Nc2nc(NNC(=O)c3ccncc3)nc(Nc3ccccn3)n2)cc1
inhibition of growth at 0.1127 µM [12]: 77%

NS(=O)(=O)c1ccc(Nc2nc(NNC(=O)c3ccncc3)nc(Nc3ccccn3)n2)cc1
MIC [1]: 6 µg/mL (≈ 12.5 µM)
inhibition of growth at 0.0418 µM [13]: 90%
Activity (Vero): Non-toxic

O=C(NNc1nc(Nc2ccccn2)nc(Nc2ccccc2Cl)n1)c1ccncc1
inhibition of growth at 0.065 µM [14]: 80%

Cc1cccc(Nc2nc(NNC(=O)c3ccncc3)nc(Nc3ccccn3)n2)c1
inhibition of growth at 0.1218 µM [15]: 74%

O=C(NNc1nc(Nc2ccccn2)nc(Nc2ccccc2O)n1)c1ccncc1
inhibition of growth at 0.1229 µM [16]: 71%

COc1ccccc1Nc1nc(NNC(=O)c2ccncc2)nc(Nc2ccccn2)n1
inhibition of growth at 0.0677 µM [17]: 81%

COc1cccc(Nc2nc(NNC(=O)c3ccncc3)nc(Nc3ccccn3)n2)c1
inhibition of growth at 0.689 µM [18]: 83%

O=C(NNc1nc(Nc2ccccn2)nc(Nc2c(Cl)cccc2Cl)n1)c1ccncc1
MIC [1]: 4.69 µg/mL (≈ 10 µM)
Activity (Vero): Non-toxic
inhibition of growth at 0.0311 µM [19]: 91%
